Measurements as given in patent US4340602A, “Compositions inhibiting estrogen sulfotransferase activity” (Wayne State University, priority 1978, dated 1982).
Like-named read-outs stand apart in the source and are kept apart here.

Experiments:
[1] = system: uteri obtained from fertilized pigs; test: in vitro; format: in vitro ADME, porcine; settings: 0.003 µM
Description: (§1) Animals. Gilts (virgin female pigs) or sows (previously pregnant pigs) in estrus from the pig farm at Michigan State University were mated with boars of established fertility. Following insemination, the females were sacrificed at various times up to 25 days later. Uteri were removed and immediately chilled on ice. Fertilization was confirmed initially by microscopic examination of oviductal washings for fertilized ova (2-5 days following insemination) by histological inspection of the corpus luteum and uterus (8-13 days) and later (17-25 days) by gross inspection of the uterus for the amniotic sac and fetuses.
(§2) Radioisotopes. [6,7-^3 H]E2 (45 Ci/mmol) was obtained from New England Nuclear Corp., Boston, Mass., and purified on ITLC-SA (Gelman Instrument Co.) with CHCl3 :CH3 OH (97:3) as the developing solvent. Na2^35 SO4 (800-1000 mCi/mmol) was obtained from New England Nuclear Corp. and used directly from the bottle.
(§3) Incubation and isolation of [^3 H]E2 and Na2^35 SO4 metabolites. Samples of whole uterus (400 mg), minced in 0.9% saline, were filtered over medium coarse nylon gauze and placed in 2.5 ml of a modified Krebs-Ringer bicarbonate buffer (MgCl2 instead of MgSO4) with glucose (1.5 mg/ml). After the [6,7-^3 H]E2 (3×10^-9 M) and Na2^35 SO4 (1×10^-4 M) were added, the mixture was incubated for 2 hr at 37° C. under […]. The incubate was then boiled for 2 min. to stop the enzymatic reactions. A control was included with each experiment, which contained all of the incubation mixture, and was carried throughout the entire procedure except for the actual incubation.
(§4) The filtered tissue was extracted in 2:1 CHCl3 :CH3 OH (10 ml) for 2 hr, and this extract, reduced almost to dryness, was recombined with the incubation supernatant. This combination in turn was extracted with ethyl acetate (2.5 ml, 3 times) at neutral pH in the presence of (NH4)2 SO4 (0.5 g/ml). The concentrated extract was applied to an alumina column in benzene. After the column was washed with benzene, the unconjugated estrogens were eluted with 100 ml ethanol and the estrogen sulfates with ethanol:water (1:1, 100 ml). The conjugated fraction was further separated from trailing free estrogens by a single development of instant thin layer chromatography (SG; chloroform:acetone:acetic acid, 110:35:6). Marker estrogen sulfates run simultaneously were identified by staining with 50% methylene blue reagent (25 mg % methylene blue in 0.05 N sulfuric acid) in acetone.
(§5) The estrogen sulfates were hydrolyzed with aryl sulfatase^3 (5 mg/10 ml) in 0.1 M sodium acetate buffer (pH 5) for two days at 37° C. (without shaking or mixing) and the estrogen moiety extracted into ether. Both the unconjugated estrogens and those hydrolyzed from sulfate esters were further purified by the procedure of Brooks et al, Biochim. Biophys. Acta, 104:250-260 (1965) and the metabolites identified and quantitated on instant thin layer chromatography (SA; chloroform:methanol, 97:3) in accordance with Pack et al (1974), supra.

in vitro = in vitro ADME, porcine; settings: pig, minced uterus
Description: as §1, §2, §3, §4, §5

[2] = system: uteri obtained from fertilized pigs; settings: average, uteri undergoing normal estrous cycle, regardless of phase; 0.003 µM; cited from earlier work

C[C@]12CC[C@@H]3c4ccc(O)cc4CC[C@H]3[C@@H]1CC[C@@H]2O [1,3,5(10)Estratriene-3,17β-diol]
sulfurylation in gilt uterus ([1]; 2-hour incubation, 5 to 23 days following fertilization, P<0.05 vs sow): 57.2±8.9%
sulfurylation in sow uterus ([1]; 2-hour incubation, 8 to 25 days following fertilization, P<0.05 vs gilt): 41.2±6.0%
Percent of added E2 found as E1 S, mean ([1]; Table III mean line, days 5-25 (SD ± 6.4)): 32.6%
Percent of added E2 found as Total E1, mean ([1]; Table III mean line, days 5-25 (SD ± 10.1)): 49.8%
Percent of added E2 found as Free E1 ([1]; Table III, 2 h incubation, 3×10^-9 M [3H]E2, by days following fertilization (S sow, G gilt), listed as E2, 120 min): 16.4%
conversion of added labeled E2 to E1 ([1]; metestrus, uteri from fertilized pigs): 13.6%
metabolised at 2 h, 0.003 µM (in vitro; 2-hour incubation, day of insemination, read-out: sulfurylation of the 3-hydroxyl group, day of insemination): 3%
metabolised at 2 h, 0.003 µM (in vitro; Table III mean line (SD ± 5.7 on next line), read-out: Percent of added E2 found as Free E1, mean): 16.6%
metabolised at 2 h, 0.003 µM (in vitro; Table III, 25 (A), anovulatory gilt, 2 h incubation, read-out: Percent of added E2 found as Total E1, anovulatory gilt): 12.9%
added E2 found as free E1, normal estrous cycle [2]: 18.7±7.2%
